In experiment [1] the target is Recombinant wild type LRRK2 protein (Homo sapiens (Human), UniProt Q5S007). In words: LRRK2 kinase activity, LanthaScreen TR-FRET assay (wild type). The experiment is classed as biochemical. The following applies: LRRKtide 400 nM, 25 μM ATP, 60 min; read-out: LRRK2 WT IC50. The method in brief: (§1)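 Recombinant human wild-type or G2019S LRRK2 phosphorylated fluorescein-labelled LRRKtide (ERM-based) with ATP and serially diluted compound for 60 min at room temperature.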
(Time-resolved FRET reads energy transfer from a long-lived donor to a nearby acceptor.)

Experiment [2] addresses Recombinant G2019S-LRRK2 protein (Homo sapiens (Human), UniProt Q5S007, G2019S). In words: LRRK2 kinase activity, LanthaScreen TR-FRET assay (G2019S). As to conditions: LRRKtide 400 nM, 25 μM ATP, 60 min. Format: biochemical. The method in brief: as §1

The structures appear in SMILES notation.

Chain of Recombinant G2019S-LRRK2 protein (Q5S007 whole entry G2019S): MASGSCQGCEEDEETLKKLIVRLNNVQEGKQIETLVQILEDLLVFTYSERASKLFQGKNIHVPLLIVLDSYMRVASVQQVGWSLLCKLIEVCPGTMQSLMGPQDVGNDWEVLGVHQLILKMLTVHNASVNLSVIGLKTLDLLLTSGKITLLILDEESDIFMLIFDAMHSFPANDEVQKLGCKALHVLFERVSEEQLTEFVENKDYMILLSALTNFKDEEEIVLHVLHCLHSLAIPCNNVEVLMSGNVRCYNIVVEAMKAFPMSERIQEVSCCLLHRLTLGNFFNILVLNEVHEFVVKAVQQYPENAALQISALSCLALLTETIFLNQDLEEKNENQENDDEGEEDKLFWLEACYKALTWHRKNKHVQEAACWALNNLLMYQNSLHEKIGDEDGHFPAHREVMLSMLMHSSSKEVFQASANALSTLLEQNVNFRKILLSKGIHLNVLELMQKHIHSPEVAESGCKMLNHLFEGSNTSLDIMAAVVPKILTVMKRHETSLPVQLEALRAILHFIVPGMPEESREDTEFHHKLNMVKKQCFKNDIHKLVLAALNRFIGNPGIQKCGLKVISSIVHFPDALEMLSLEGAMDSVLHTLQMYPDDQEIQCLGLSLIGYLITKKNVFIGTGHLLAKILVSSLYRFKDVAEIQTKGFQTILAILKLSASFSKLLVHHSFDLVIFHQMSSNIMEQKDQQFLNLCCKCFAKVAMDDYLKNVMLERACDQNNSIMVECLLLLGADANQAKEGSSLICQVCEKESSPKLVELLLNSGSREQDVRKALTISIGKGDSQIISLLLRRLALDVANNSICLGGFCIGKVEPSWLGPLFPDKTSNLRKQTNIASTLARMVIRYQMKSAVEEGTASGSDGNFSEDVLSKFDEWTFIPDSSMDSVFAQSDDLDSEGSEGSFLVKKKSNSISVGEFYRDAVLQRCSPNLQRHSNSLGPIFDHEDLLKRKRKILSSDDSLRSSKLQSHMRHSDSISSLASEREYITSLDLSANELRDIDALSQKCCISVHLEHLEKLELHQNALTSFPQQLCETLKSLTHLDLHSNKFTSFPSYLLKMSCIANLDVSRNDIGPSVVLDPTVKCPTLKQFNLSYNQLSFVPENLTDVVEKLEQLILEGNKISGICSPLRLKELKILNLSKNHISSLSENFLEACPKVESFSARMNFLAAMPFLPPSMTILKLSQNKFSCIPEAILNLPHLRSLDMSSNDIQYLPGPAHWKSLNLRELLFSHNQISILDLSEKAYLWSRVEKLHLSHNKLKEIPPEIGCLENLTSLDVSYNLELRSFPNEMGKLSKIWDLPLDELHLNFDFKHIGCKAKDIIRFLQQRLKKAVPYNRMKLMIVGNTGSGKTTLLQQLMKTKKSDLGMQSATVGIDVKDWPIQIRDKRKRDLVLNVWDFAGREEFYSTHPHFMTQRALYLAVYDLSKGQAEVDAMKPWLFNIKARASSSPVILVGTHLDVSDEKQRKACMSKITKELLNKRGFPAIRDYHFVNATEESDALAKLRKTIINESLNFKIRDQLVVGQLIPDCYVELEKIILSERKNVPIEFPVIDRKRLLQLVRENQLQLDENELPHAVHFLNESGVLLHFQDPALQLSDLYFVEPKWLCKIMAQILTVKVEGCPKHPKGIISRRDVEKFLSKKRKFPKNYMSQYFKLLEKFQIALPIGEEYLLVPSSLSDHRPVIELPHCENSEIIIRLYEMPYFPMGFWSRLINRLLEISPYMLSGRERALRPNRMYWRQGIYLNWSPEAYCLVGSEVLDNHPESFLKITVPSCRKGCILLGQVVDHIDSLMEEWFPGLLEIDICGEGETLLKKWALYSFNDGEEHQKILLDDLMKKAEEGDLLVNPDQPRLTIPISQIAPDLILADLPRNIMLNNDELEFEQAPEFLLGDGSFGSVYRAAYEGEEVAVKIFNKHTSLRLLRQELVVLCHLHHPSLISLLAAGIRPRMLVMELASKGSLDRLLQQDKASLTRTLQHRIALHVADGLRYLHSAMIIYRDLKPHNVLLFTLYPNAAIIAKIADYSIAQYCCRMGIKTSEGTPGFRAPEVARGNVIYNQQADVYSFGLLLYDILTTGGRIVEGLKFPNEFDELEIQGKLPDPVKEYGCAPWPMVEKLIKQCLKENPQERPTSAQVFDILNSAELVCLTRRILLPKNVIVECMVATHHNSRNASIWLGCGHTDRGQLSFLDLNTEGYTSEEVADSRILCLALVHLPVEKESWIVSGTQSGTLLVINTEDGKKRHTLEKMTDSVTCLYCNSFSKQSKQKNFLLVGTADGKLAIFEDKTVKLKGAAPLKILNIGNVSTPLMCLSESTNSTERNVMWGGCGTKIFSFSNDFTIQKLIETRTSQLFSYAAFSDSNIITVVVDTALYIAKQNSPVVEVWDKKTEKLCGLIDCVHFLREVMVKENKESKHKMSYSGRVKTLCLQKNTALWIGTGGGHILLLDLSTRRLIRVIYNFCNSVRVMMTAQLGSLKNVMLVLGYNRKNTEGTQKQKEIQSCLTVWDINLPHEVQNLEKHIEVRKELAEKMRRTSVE
Chain of Recombinant wild type LRRK2 protein (Q5S007 whole entry): as the sequence (Q5S007 whole entry G2019S) above, with S2019G counted along it

The term IC50 denotes the concentration needed to halve the response being measured. As to `Cc1cc(C#N)nnc1C(=O)Nc1ccc2[nH]nc(-c3ccoc3)c2c1` [Example 162, 6-Cyano-N-(3-(furan-3-yl)-1H-indazol-5-yl)-4-methylpyridazine-3-carboxamide], the half-inhibitory concentration (IC50) is 100 to 1000 nM in experiment [1] and below 100 nM in experiment [2].

`N#Cc1ccc(F)c(C(=O)Nc2ccc3[nH]nc(-c4cnn(C(F)F)c4)c3c2)c1F` [Example 163, 3-Cyano-N-(3-(1-(difluoromethyl)-1H-pyrazol-4-yl)-1H-indazol-5-yl)-2,6-difluorobenzamide]: the IC50 in experiment [1] and in experiment [2] was below 100 nM each time.

As for `COc1c(C#N)cccc1C(=O)Nc1ccc2[nH]nc(-c3cnn(C(F)F)c3)c2c1` [Example 164, 3-Cyano-N-(3-(1-(difluoromethyl)-1H-pyrazol-4-yl)-1H-indazol-5-yl)-2-methoxybenzamide], the IC50 in experiment [1] and in experiment [2] was below 100 nM in each case.

Consider `N#Cc1cccc(C(=O)Nc2ccc3[nH]nc(-c4cnn(C(F)F)c4)c3c2)c1F` [Example 167, 3-Cyano-N-(3-(1-(difluoromethyl)-1H-pyrazol-4-yl)-1H-indazol-5-yl)-2-fluorobenzamide], for which the IC50 in experiment [1] and in experiment [2] was below 100 nM in each case.

In the case of `Cc1c(C#N)cnc(C(=O)Nc2ccc3[nH]nc(-c4cnoc4)c3c2)c1C` [Example 168, 5-Cyano-N-(3-(isoxazol-4-yl)-1H-indazol-5-yl)-3,4-dimethylpicolinamide], the IC50 in experiment [1] and in experiment [2] was below 100 nM in each case.

For the compound `Cc1c(C#N)cnc(C(=O)Nc2ccc3[nH]nc(-c4cnn(C(F)(F)F)c4)c3c2)c1C` [Example 169, 5-Cyano-3,4-dimethyl-N-(3-(1-(trifluoromethyl)-1H-pyrazol-4-yl)-1H-indazol-5-yl)picolinamide], the IC50 in experiment [1] and in experiment [2] was below 100 nM in each case.

Turning to `COc1cc(-c2n[nH]c3ccc(NC(=O)c4ccnc(C#N)c4F)cc23)ccn1` [Example 170, 2-Cyano-3-fluoro-N-(3-(2-methoxypyridin-4-yl)-1H-indazol-5-yl)isonicotinamide], the IC50 in experiment [1] was 100 to 1000 nM; in experiment [2], below 100 nM.

As for `Cc1c(C#N)cnc(C(=O)Nc2ccc3[nH]nc(-c4cncc(Cl)c4)c3c2)c1C` [Example 171, N-(3-(5-Chloropyridin-3-yl)-1H-indazol-5-yl)-5-cyano-3,4-dimethylpicolinamide], the IC50 in experiment [1] and in experiment [2] was below 100 nM each time.

For `Cc1c(C#N)cnc(C(=O)Nc2ccc3[nH]nc(-c4cnn(CF)c4)c3c2)c1C` [Example 172, 5-Cyano-N-(3-(1-(fluoromethyl)-1H-pyrazol-4-yl)-1H-indazol-5-yl)-3,4-dimethylpicolinamide], the IC50 in experiment [1] and in experiment [2] was below 100 nM each time.

Turning to `N#Cc1cccc(C(=O)Nc2ccc3[nH]nc(-c4ccoc4)c3c2)c1C(F)(F)F` [Example 173, 3-Cyano-N-(3-(furan-3-yl)-1H-indazol-5-yl)-2-(trifluoromethyl)benzamide], the IC50 in experiment [1] and in experiment [2] was below 100 nM each time.

Take `Cc1ncc(-c2n[nH]c3ccc(NC(=O)c4ncc(C#N)c(C)c4C)cc23)o1` [Example 174, 5-Cyano-3,4-dimethyl-N-(3-(2-methyloxazol-5-yl)-1H-indazol-5-yl)picolinamide]: the IC50 in experiment [1] and in experiment [2] was below 100 nM throughout.

Turning to `Cc1c(C(=O)Nc2ccc3[nH]nc(-c4cnn(C(F)F)c4)c3c2)nc(Cl)c(C#N)c1C` [Example 175, 6-Chloro-5-cyano-N-(3-(1-(difluoromethyl)-1H-pyrazol-4-yl)-1H-indazol-5-yl)-3,4-dimethylpicolinamide], the IC50 in experiment [1] and in experiment [2] was below 100 nM throughout.

Consider `COc1c(C#N)cccc1C(=O)Nc1ccc2[nH]nc(-c3cnco3)c2c1` [Example 176, 3-Cyano-2-methoxy-N-(3-(oxazol-5-yl)-1H-indazol-5-yl)benzamide], for which the IC50 in experiment [1] and in experiment [2] was below 100 nM each time.

As for `Cc1ccc(C#N)c(F)c1C(=O)Nc1ccc2[nH]nc(-c3cnn(C(F)F)c3)c2c1` [Example 177, 3-Cyano-N-(3-(1-(difluoromethyl)-1H-pyrazol-4-yl)-1H-indazol-5-yl)-2-fluoro-6-methylbenzamide], the IC50 in experiment [1] and in experiment [2] was below 100 nM throughout.

On to `COc1cc(-c2n[nH]c3ccc(NC(=O)c4ncc(C#N)cc4C(F)(F)F)cc23)ccn1` [Example 178, 5-Cyano-N-(3-(2-methoxypyridin-4-yl)-1H-indazol-5-yl)-3-(trifluoromethyl)picolinamide], for which the IC50 in experiment [1] and in experiment [2] was below 100 nM each time.

As to `Cc1c(C(=O)Nc2ccc3[nH]nc(-c4ccoc4)c3c2)noc1C#N` [Example 179, 5-Cyano-N-(3-(furan-3-yl)-1H-indazol-5-yl)-4-methylisoxazole-3-carboxamide], the IC50 in experiment [1] and in experiment [2] was below 100 nM throughout.

`Cc1c(C#N)noc1C(=O)Nc1ccc2[nH]nc(-c3ccoc3)c2c1` [Example 180, 3-Cyano-N-(3-(furan-3-yl)-1H-indazol-5-yl)-4-methylisoxazole-5-carboxamide]: the IC50 in experiment [1] and in experiment [2] was 100 to 1000 nM each time.

For `Cc1c(C#N)cnc(C(=O)Nc2ccc3[nH]nc(-c4cnc(C(C)C)o4)c3c2)c1C` [Example 181, 5-Cyano-N-(3-(2-isopropyloxazol-5-yl)-1H-indazol-5-yl)-3,4-dimethylpicolinamide], the IC50 in experiment [1] and in experiment [2] was below 100 nM in each case.

For `Cc1cccc(-c2n[nH]c3ccc(NC(=O)c4ncc(C#N)c(C)c4C)cc23)n1` [Example 182, 5-Cyano-3,4-dimethyl-N-(3-(6-methylpyridin-2-yl)-1H-indazol-5-yl)picolinamide], the IC50 in experiment [1] is 100 to 1000 nM; in experiment [2], below 100 nM.

Turning to `Cc1c(C#N)cnc(C(=O)Nc2ccc3[nH]nc(-c4cn[nH]c4)c3c2)c1C` [Example 183, N-(3-(1H-Pyrazol-4-yl)-1H-indazol-5-yl)-5-cyano-3,4-dimethylpicolinamide], the IC50 in experiment [1] and in experiment [2] was below 100 nM in each case.

In the case of `Cc1c(C(=O)Nc2ccc3[nH]nc(-c4cnco4)c3c2)nc(Cl)c(C#N)c1C` [Example 184, 6-Chloro-5-cyano-3,4-dimethyl-N-(3-(oxazol-5-yl)-1H-indazol-5-yl)picolinamide], the IC50 in experiment [1] and in experiment [2] was below 100 nM throughout.

Turning to `Cc1nc(C(=O)Nc2ccc3[nH]nc(-c4cnn(C(F)F)c4)c3c2)c(C)c(C)c1C#N` [Example 185, 5-Cyano-N-(3-(1-(difluoromethyl)-1H-pyrazol-4-yl)-1H-indazol-5-yl)-3,4,6-trimethylpicolinamide], the IC50 in experiment [1] and in experiment [2] was below 100 nM each time.

`Cc1c(C#N)cnc(C(=O)Nc2ccc3[nH]nc(-c4ccn(C)c4)c3c2)c1C` [Example 186, 5-cyano-3,4-dimethyl-N-(3-(1-methyl-1H-pyrrol-3-yl)-1H-indazol-5-yl)picolinamide]: the IC50 in experiment [1] and in experiment [2] was below 100 nM each time.

As for `Cc1c(C#N)cnc(C(=O)Nc2ccc3[nH]nc(-c4cnn(C)c4)c3c2)c1C` [Example 187, 5-Cyano-3,4-dimethyl-N-(3-(1-methyl-1H-pyrazol-4-yl)-1H-indazol-5-yl)picolinamide], the IC50 in experiment [1] and in experiment [2] was below 100 nM throughout.

`N#Cc1ccc(F)c(C(=O)Nc2ccc3[nH]nc(-c4cnco4)c3c2)c1F` [Example 188, 3-Cyano-2,6-difluoro-N-(3-(oxazol-5-yl)-1H-indazol-5-yl)benzamide]: the IC50 in experiment [1] and in experiment [2] was below 100 nM throughout.

As for `COc1cc(C#N)ccc1C(=O)Nc1ccc2[nH]nc(-c3cnn(C(F)F)c3)c2c1` [Example 189, 4-Cyano-N-(3-(1-(difluoromethyl)-1H-pyrazol-4-yl)-1H-indazol-5-yl)-2-methoxybenzamide], the IC50 in experiment [1] and in experiment [2] was below 100 nM throughout.

Consider `Cc1cc(C#N)cc(F)c1C(=O)Nc1ccc2[nH]nc(-c3cnco3)c2c1` [Example 190, 4-Cyano-2-fluoro-6-methyl-N-(3-(oxazol-5-yl)-1H-indazol-5-yl)benzamide], for which the IC50 in experiment [1] and in experiment [2] was below 100 nM each time.

`Cc1cc(-c2n[nH]c3ccc(NC(=O)c4ncc(C#N)c(C)c4C)cc23)cc(C)n1` [Example 191, 5-Cyano-N-(3-(2,6-dimethylpyridin-4-yl)-1H-indazol-5-yl)-3,4-dimethylpicolinamide]: the IC50 in experiment [1] and in experiment [2] was below 100 nM throughout.

With `N#Cc1cccc(C(=O)Nc2ccc3[nH]nc(-c4cnn(C(F)F)c4)c3c2)c1C(F)(F)F` [Example 192, 3-Cyano-N-(3-(1-(difluoromethyl)-1H-pyrazol-4-yl)-1H-indazol-5-yl)-2-(trifluoromethyl)benzamide], the IC50 in experiment [1] and in experiment [2] was below 100 nM in each case.

Consider `Cc1ccc(C#N)c(C)c1C(=O)Nc1ccc2[nH]nc(-c3cnn(C(F)F)c3)c2c1` [Example 193, 3-Cyano-N-(3-(1-(difluoromethyl)-1H-pyrazol-4-yl)-1H-indazol-5-yl)-2,6-dimethylbenzamide], for which the IC50 in experiment [1] and in experiment [2] was below 100 nM each time.

Turning to `COc1cc(-c2n[nH]c3ccc(NC(=O)c4c(C)c(C#N)nn4C)cc23)ccn1` [Example 194, 3-Cyano-N-(3-(2-methoxypyridin-4-yl)-1H-indazol-5-yl)-1,4-dimethyl-1H-pyrazole-5-carboxamide], the IC50 in experiment [1] is 100 to 1000 nM; in experiment [2], below 100 nM.

With `Cc1c(C#N)nn(C)c1C(=O)Nc1ccc2[nH]nc(-c3cnn(C(F)F)c3)c2c1` [Example 195, 3-Cyano-N-(3-(1-(difluoromethyl)-1H-pyrazol-4-yl)-1H-indazol-5-yl)-1,4-dimethyl-1H-pyrazole-5-carboxamide], the IC50 in experiment [1] and in experiment [2] was below 100 nM in each case.

Source of the values: patent US11427558B1, “Indazoles and azaindazoles as LRRK2 inhibitors” (ESCAPE Bio, Inc., priority 2019, dated 2022).
